Melting point data for 61 compounds are collected here from a melting point compilation (Tetko et al.; mined from patent text by program, amines drawn as free bases though some values may be those of a salt).

Structures are written as SMILES.

With `CC(C)(C)c1cc(C(=O)Nc2nc(CC(=O)NCCN3CCN(c4ncccn4)CC3)cs2)cc(C(C)(C)C)c1O`, the melting point – broadly, the temperature of the solid-liquid transition – was in the range of 175 to 179 °C.

For `O=C(NC1CCN(CCCOc2ccc3c4c(c(=O)oc3c2)CCC4)CC1)c1ccc([N+](=O)[O-])cc1`, the melting point was 212 to 213 °C.

`COC(=O)c1ccc(OCC(C)C)c([N+](=O)[O-])c1` displayed a melting point of 77 °C.

`CCC(CC)Oc1ccc(/C=C/C(=O)Nc2ccccc2C(=O)O)cc1OC` registered a melting point of 82 to 85 °C.

In turn, `O=C(Nc1cc2ncc(CN3CCCC3)cc2cc1N1CCCC1)c1ccc(Br)cc1` showed a melting point of 171 to 173 °C.

On to `O=C1OCCC1NC(c1ccccc1)(c1ccccc1)c1ccccc1` (stereo unspecified), for which the melting point was 164 to 166 °C.

In turn, `CCCCN1C(=O)NC(Cc2ccccc2)C1=O` (stereo unspecified) registered a melting point of 143 °C.

For the compound `CC#CCOc1ccc(SC(C(=O)O)c2cccc(Cl)c2)cc1` (stereo unspecified), the melting point worked out at 64 °C.

Turning to `CSC(C)=NOC(=O)N(C)SN(C)C(=O)ON=C(C)C(C)=NOC(=O)N(C)SN(C)C(=O)ON=C(SC)C(=O)N(C)C`, the melting point fell in the range of 87 to 110 °C.

Take `CCOC(=O)c1cc2n(c1)CN(C(=O)OCC)c1c(OC)cccc1-2`: the melting point lay within 172 to 174 °C.

Consider `O=C(O)c1cc(=O)cc(-c2ccccc2O)o1`, for which the melting point was 213 to 215 °C.

On to `CCCCCCCCCCc1ccc(C(=O)CCCCC(=O)O)cc1`, for which the melting point lay within 84 to 85 °C.

Regarding `COc1cn(-c2cccc(C(F)(F)F)c2)nc(-c2ccnn2-c2ccccc2)c1=O`, the melting point is 139 to 141 °C.

`Cc1nnc(CN2C(=O)c3ccccc3C2=O)n1-c1ccc(Cl)cc1C(=O)c1ccccc1Cl` showed a melting point of 262 to 265 °C.

On to `CC(C)C1C(O)=CC(=O)N1c1ccc(C#N)c(Cl)c1` (stereo unspecified), for which the melting point lay in the range of 217 to 219 °C.

For `CC(C)N(NC(=O)OC(C)(C)C)C(=O)NCC(F)(F)F`, the melting point lay in the range of 90 to 94 °C.

The compound `Cc1cc2c(cc1C)[C@@H](O)[C@H](CN1CCC3(CC1)C(=O)NCN3c1ccccc1)CC2` (relative stereo) yielded a melting point of 232 to 233 °C.

For the compound `CC(C#Cc1cccc(Oc2cccs2)c1)N(O)C(N)=O` (stereo unspecified), the melting point lay in the range of 110 to 112 °C.

On to `Cn1c(C(=O)O)cc(=O)c2oc3ccccc3c(=O)c21`, for which the melting point was determined as 220 °C.

As for `O=C(O)C(O)=Cc1ccc([N+](=O)[O-])s1`, the melting point was in the range of 192 to 193 °C.

Turning to `N#Cc1ccc(C=NO)c(Cl)c1`, the melting point is 177 to 179 °C.

`COC(=O)/C(=C/CC[C@H](NC(=O)OCc1ccccc1)C(=O)N[C@H](C)C(=O)OC)NC(=O)OC(C)(C)C` yielded a melting point of 120 to 121 °C.

For the compound `CC(C)c1cccc(S(=O)(=O)n2c(CCCC(=O)O)cc3nc(Cl)ccc32)c1`, the melting point is 119 °C.

Regarding `CCC(C)c1cc2c(cc1O)CC[C@@H]1[C@@H]2CC[C@]2(C)C(=O)CC[C@@H]12` (stereo partly specified), the melting point is 186 to 187 °C.

`COC(=O)NC1(Cl)C=CC=CN1CC(COc1cccc2ccccc12)OC(=O)OC` (stereo unspecified) displayed a melting point of 133 to 135 °C.

`Cc1cc(C)c(-n2nnc3c(-c4ccc(Cl)cc4Cl)nc(C)nc32)c(C)c1`: the melting point lay within 167 to 168 °C.

Regarding `CC(=S)NC[C@H]1CN(c2ccc(C3CCS(=O)(=O)N(C)C3)c(F)c2)C(=O)O1` (stereo partly specified), the melting point lay within 95 to 98 °C.

For the compound `CCCN1C(=O)CN(c2ccccc2)C1=O`, the melting point turned out to be 97 °C.

As to `CNC(=S)NCCCCC(NC(=O)C(Cc1cccc2ccccc12)Cc1cccc2ccccc12)C(=O)NC(CC(C)C)C(O)C(=O)OC(C)C` (stereo unspecified), the melting point was in the range of 93 to 95 °C.

Turning to `O=C(O)c1cccc([N+](=O)[O-])c1Nc1ccc(Br)cc1`, the melting point was in the range of 194 to 196 °C.

Regarding `O=C1c2ccccc2C(Nc2ccc(Cl)cc2)N1CCCN1CC=C(c2ccccc2)CC1` (stereo unspecified), the melting point came out at 188 °C.

As to `Cc1csc(NC(=O)C2=C(O)c3ccccc3N(c3ccccc3)C2)n1`, the melting point was 228 to 230 °C.

Compound `CCOC(=O)c1nc2n(n1)-c1ccc(Cl)cc1C(c1ccccc1)=NC2` showed a melting point of 137 to 138 °C.

As to `C[C@H](NC(=O)OC(C)(C)C)C(=O)N1CCC[C@H]1C(=O)N1CCC[C@H]1C(=O)OCc1ccccc1`, the melting point was 143 to 145 °C.

`COc1cc(Nc2c(C#N)cnc3cc4cc(OCCN5CCC(O)CC5)c(OC)cc4cc23)c(Cl)cc1Cl` had a melting point of 193 to 198 °C.

In the case of `CCOC(=O)c1ccccc1NCC(=O)N(C)c1ccccc1`, the melting point turned out to be 100 °C.

With `NC1SC2=CC=CC2=C1C(=O)c1ccc(Br)cc1` (stereo unspecified), the melting point was 205 to 206 °C.

Compound `OCCn1c2ccccc2c2c(N3CCCC3)nc(N3CCCC3)nc21` displayed a melting point of 110 °C.

As for `CCC1Cc2ccc(NC(=N)c3cccs3)cc2CN1C` (stereo unspecified), the melting point lay within 125 to 126 °C.

`O=C(Nc1nccs1)C(CC1CCCC1)c1ccc(-c2ccc3[nH]ccc3c2)cc1` (stereo unspecified) gave a melting point of 112 to 115 °C.

`COc1cc(CNC(=O)c2nc3scc(COCc4ccc(C(=O)O)cc4)c3c(=O)[nH]2)ccn1` displayed a melting point of 240 to 242 °C.

As to `CCOC(=O)C1SCCc2cc(OC)c(OC)cc21` (stereo unspecified), the melting point is 96 to 98 °C.

Compound `CC12CC(O)C3c4cc(O)ccc4CCC3C1CCC2O` (stereo unspecified) came in with a melting point of 229 to 232 °C.

For `Cc1c(CCC(=O)c2cn(Cc3ccccc3)c3ccccc23)ncn1C(c1ccccc1)(c1ccccc1)c1ccccc1`, the melting point is 186 to 188 °C.

Compound `COc1ccc(CC2CNC(=O)N2)cc1OC1CCCC1` (stereo unspecified) came in with a melting point of 107 to 111 °C.

In turn, `C=CCOc1cc(=O)n(-c2ccccc2)c2ncccc12` yielded a melting point of 171 to 174 °C.

The compound `COc1ccc(COc2ccc3[nH]c4c([N+](=O)[O-])ccc(Cl)c4c(=O)c3c2)cc1` yielded a melting point of 187 to 189 °C.

Turning to `COc1ccc(-c2oncc2CO)cc1OC`, the melting point fell in the range of 83 to 84 °C.

`O=CN1CCN(S(=O)(=O)CCCOc2ccc3c(c2)CC2NC(=O)NC2=N3)CC1` (stereo unspecified) came in with a melting point of 285 to 288 °C.

`C=CCc1cccnc1C(=O)OC` registered a melting point of 116 to 119 °C.

On to `CCOC(=O)CC(NC(=O)c1cccc(Cl)c1)C(=O)c1ccsc1` (stereo unspecified), for which the melting point was 63 to 65 °C.

Compound `COC(=O)c1ccccc1-c1ccc(Cc2nc(-c3ccccc3)nc3ccccc23)cc1` came in with a melting point of 120 to 121 °C.

Compound `N#CCCNC(=O)c1cccc(-c2ccc3c(c2)C(NCc2ccc(Cl)cc2Cl)CC3)c1` (stereo unspecified) showed a melting point of 126 to 130 °C.

In turn, `Cn1c(=O)sc2ccc(Cl)cc21` had a melting point of 106 to 108 °C.

`ClC(=NNc1c(Cl)cc(Cl)cc1Cl)c1ccccc1` showed a melting point of 93 to 94.5 °C.

`CN1CCc2c(ccc3[nH]c(=O)c(=O)[nH]c23)C1` showed a melting point of 310 to 335 °C.

In turn, `Cn1c(C(F)(F)F)cc(=O)n(-c2cc(Oc3ccccc3OCc3ccccc3)c(Cl)cc2F)c1=O` came in with a melting point of 50.8 °C.

Compound `O=C(CCc1cccnc1)NCCCCC1CCN(C2c3ccccc3COc3ccccc32)CC1` (stereo unspecified) returned a melting point of 110 to 112 °C.

The compound `CSC1=NC=C(I)C(c2nnn(C)n2)(C(F)(F)F)N1` (stereo unspecified) had a melting point of 113 to 118 °C.

In the case of `Clc1ccc2nc(CBr)c(CBr)nc2c1`, the melting point lay in the range of 149 to 150 °C.

Consider `CCCOC(=O)C(C)Oc1ccc(Oc2cnc3cc(F)ccc3n2)cc1F` (stereo unspecified), for which the melting point is 49 to 51 °C.
